Assay results: paper PMC3913857, “Regorafenib in Japanese patients with solid tumors: phase I study of safety, efficacy, and pharmacokinetics” (Investigational New Drugs, 2013)
Read-outs that look alike come from different tables or passages of the source. Marks after values point to notes of the source that are not given here.

Experiments:
[1] = clinical; set-up: species or system Japanese patients; conditions: in vivo; for AUC from 0 to 24 h of metabolite as share of regorafenib / t 1/2 (terminal half life) / t max / AUC / AUC0–24 / C max / AUC(0-t) / Cmax / half-life: human
Experimental: Patients who provided at least one evaluable pharmacokinetic sample were eligible for pharmacokinetic analyses.
Plasma concentrations of regorafenib and its metabolites were determined by fully validated liquid chromatography–tandem mass spectrometry after protein precipitation with acetonitrile/ammonium acetate buffer containing the internal standards [^2H3 ^15N] BAY 73-4506 (for regorafenib), [^2H3 ^15N] […] BAY 81-8752 (for the M5 metabolite).

[2] = Safety: adverse events (NCI CTCAE v3.0) and laboratory toxicities, Japan phase I study; set-up: species or system Japanese patients; conditions: in vivo
Experimental: (§1) All patients who received at least one dose of regorafenib were eligible for safety analyses and were included in the efficacy analyses if they also had post-baseline efficacy data. For the safety analysis, physical examination, vital signs, use of concomitant medications, and laboratory test data were reported, and patients were routinely monitored for adverse events, which were recorded with severity and relationship to study medication according to the National Cancer Institute Common Terminology Criteria for Adverse Events version 3.0. Tumor response was assessed every 8 weeks for the first 6 cycles and every 12 weeks after Cycle 6 by Response Evaluation Criteria in Solid Tumors version 1.0, using the same imaging techniques and methods as at baseline. The response rate was defined as the proportion of patients whose best response was a confirmed partial or complete response.
Unacceptable toxicity was defined as any of the following events occurring during Cycle 1 and considered to be related to study drug: grade 4 neutropenia (for ≥7 days); febrile neutropenia with grade 4 neutropenia and fever; grade 4 thrombocytopenia; grade 3 or 4 nonhematologic toxicities (excluding events considered to be tolerable by the investigator). If two of the first three or three of the first six patients treated with regorafenib experienced unacceptable toxicities during Cycle 1, the safety data were reviewed by the Data Monitoring Committee, which considered whether protocol amendments were needed to address any safety concerns before subsequent patients were treated.

[3] = tested on: treatment-refractory advanced solid tumors; test: Tumor response (RECIST version 1.0), Japan phase I study; type: in vivo, Japanese patients
Experimental: as §1

[4] = set-up: method as in PMID 22421192; conditions: European phase I study, 160 mg cohort only, n = 12, cited from earlier work
[5] = set-up: method as in ref 7 = [7]; 7. Eisen T, Joenssu H, Nathan P Harper P, Wojtukiewicz M, Nicholson S, Bahl A, Tomczak P, Wagner A, Quinn D (2011) Phase II trial of the oral multi kinase inhibitor regorafenib (BAY 73-4506) as first-; conditions: European phase II study, advanced renal cell carcinoma, n = 49, cited from earlier work
[6] = tested on: cytochrome p450 3A4; set-up: method as in ref 11 = [11]; 11. Bayer HealthCare AG, data on file; conditions: in vitro; cited from earlier work
[7] = tested on: UDP-glucuronosyltransferase 1A9; set-up: method as in ref 11 = [11]; 11. Bayer HealthCare AG, data on file; conditions: in vitro, glucuronidation; cited from earlier work
[8] = set-up: method as in PMID 22421192, PMID 22568966; conditions: European phase I and II studies; cited from earlier work
[9] = any time after start of study treatment

NC(=O)c1cc(Oc2ccc(NC(=O)Nc3ccc(Cl)c(C(F)(F)F)c3)c(F)c2)cc[n+]1[O-] [M5]
AUC from 0 to 24 h of metabolite as share of regorafenib [1]: 21.5% | t 1/2 (terminal half life) [1]: 57.5 (33.7) h | t max [1]: 35.6 (0.6–73.2) h | AUC ([1]; po, 160 mg): 3,441.8 (112.0)^a μg.h/L | AUC0–24 ([1]; po, 160 mg): 380.5/164.2 (112.0)^a μg.h/L | C max ([1]; po, 160 mg): 31.1 (167.3)^a μg/L | t max ([1]; po, 160 mg): 24.0 (2.8–71.3)^a h | Change in t max and t 1/2 between single dosing and 21-day multiple dosing [1]: no significant change

CNC(=O)c1cc(Oc2ccc(NC(=O)Nc3ccc(Cl)c(C(F)(F)F)c3)c(F)c2)ccn1 [Regorafenib]
AUC ([1]; po, 160 mg): 34600 ng·h/mL | AUC(0-t) ([1]; po, 160 mg): 16400 ng·h/mL | Cmax ([1]; po, 160 mg): 1370 ng/mL | t 1/2 (terminal half life) ([1]; po, 160 mg): 27.4 (29.9) h | t max ([1]; po, 160 mg): 4 h | half-life ([1]; po, 160 mg, t 1/2 (terminal half life)): ~27 h | AUC(0-t) ([1]; Cycle 1 day 21, regorafenib 160 mg once daily for 21 days, N = 12, geometric mean (% coefficient of variance), read-out: AUC0–24): 33000 ng·h/mL | Cmax ([1]; Cycle 1 day 21, regorafenib 160 mg once daily for 21 days, N = 12, geometric mean (% coefficient of variance), read-out: C max): 2520 ng/mL | half-life ([1]; Cycle 1 day 21, regorafenib 160 mg once daily for 21 days, N = 12, geometric mean (% coefficient of variance), read-out: t 1/2 (terminal half life) (converted)): 30.4 h | t max ([1]; Cycle 1 day 21, regorafenib 160 mg once daily for 21 days, N = 12, median (range), read-out: t max): 3.6 h | Change in t max and t 1/2 between single dosing and 21-day multiple dosing [1]: no significant change | Biochemical abnormality: alkaline phosphatase (ALP) elevation ([2]; human): 93% | Biochemical abnormality: hypoalbuminemia ([2]; human): 93% | Biochemical abnormality: hypophosphatemia ([2]; human): 80% | Biochemical abnormality: proteinuria ([2]; human): 80% | Biochemical toxicity: ALP elevation, any grade ([2]; human): 14 (93) n (%) | Biochemical toxicity: ALP elevation, grade 3 or 4 ([2]; human): 2 (13) n (%) | Biochemical toxicity: ALT elevation, any grade ([2]; human): 12 (80) n (%) | Biochemical toxicity: ALT elevation, grade 3 or 4 ([2]; human): 3 (20) n (%) | Biochemical toxicity: AST elevation, any grade ([2]; human): 13 (87) n (%) | Biochemical toxicity: AST elevation, grade 3 or 4 ([2]; human): 3 (20) n (%) | Biochemical toxicity: Hypoalbuminemia, any grade ([2]; human): 14 (93) n (%) | Biochemical toxicity: Hypoalbuminemia, grade 3 or 4 ([2]; human): 0 n (%) | Biochemical toxicity: Hypocalcemia, any grade ([2]; human): 9 (60) n (%) | Biochemical toxicity: Hypocalcemia, grade 3 or 4 ([2]; human): 0 n (%) | Biochemical toxicity: Hypophosphatemia, any grade ([2]; human): 12 (80) n (%) | Biochemical toxicity: Hypophosphatemia, grade 3 or 4 ([2]; human): 4 (27) n (%) | Biochemical toxicity: Proteinuria, grade 3 or 4 ([2]; human): 1 (7) n (%) | Incidence of biochemical toxicities: ALT, grade 3/4 ([2]; human): 20% | Incidence of biochemical toxicities: AST, all grades ([2]; human): 87% | Incidence of biochemical toxicities: AST, grade 3/4 ([2]; human): 20% | Patients with at least one drug-related treatment-emergent adverse event of any grade ([2]; human): 15 patients | Treatment discontinuation for adverse event: anemia ([2]; human): 1 n | Treatment discontinuation for adverse event: liver enzyme elevation ([2]; human): 1 n | Grade of drug-related adverse event resulting in treatment reduction or interruption: ALT elevation ([2]; human, 1 cycle): 3 | Grade of drug-related adverse event resulting in treatment reduction or interruption: AST elevation ([2]; human, 1 cycle): 3 | Grade of drug-related adverse event resulting in treatment reduction or interruption: Hypertension ([2]; human, 1 cycle): 2 | Grade of drug-related adverse event resulting in treatment reduction or interruption: Leukopenia ([2]; human, 1 cycle): 2 | Grade of drug-related adverse event resulting in treatment reduction or interruption: Neutropenia ([2]; human, 1 cycle): 3 | Grade of drug-related adverse event resulting in treatment reduction or interruption: Thrombocytopenia ([2]; human, 1 cycle): 2 | Grade of drug-related adverse event resulting in treatment reduction or interruption: ALT elevation ([2]; human, 2 cycle): 4 | Grade of drug-related adverse event resulting in treatment reduction or interruption: Hand–foot skin reaction ([2]; human, 2 cycle): 3 | Grade of drug-related adverse event resulting in treatment reduction or interruption: Dental pulpitis ([2]; human, 3 cycle): 2 | Grade of drug-related adverse event resulting in treatment reduction or interruption: Diarrhea ([2]; human, 3 cycle): 3 | Grade of drug-related adverse event resulting in treatment reduction or interruption: Hand–foot skin reaction ([2]; human, 3 cycle): 1 | Grade of drug-related adverse event resulting in treatment reduction or interruption: Hand–foot skin reaction (event cell empty, from line above) ([2]; human, 3 cycle): 1 | Grade of drug-related adverse event resulting in treatment reduction or interruption: Hand–foot skin reaction ([2]; human, 7 cycle): 3 | Grade of drug-related adverse event resulting in treatment reduction or interruption: Hand–foot skin reaction (event cell empty, from line above) ([2]; human, 9 cycle): 1 | Grade of drug-related adverse event resulting in treatment reduction or interruption: Proteinuria ([2]; human, 9 cycle): 3 | Grade of drug-related adverse event resulting in treatment reduction or interruption: Proteinuria ([2]; human, 10 cycle): 2 | Grade of drug-related adverse event resulting in treatment reduction or interruption: Back pain ([2]; human, 11 cycle): 3 | Grade of drug-related adverse event resulting in treatment reduction or interruption: Gingivitis ([2]; human, 18 cycle): 2 | Changes in vital signs or electrocardiogram findings [2]: No clear changes | Cycle delay (start of next cycle delayed longer than 7 days) because of adverse events [2]: four | Dose reduction because of adverse events [2]: six | Drug-related adverse events leading to dose interruption or dose reduction [2]: eight | Interruption of regorafenib during daily treatment because of adverse events [2]: seven | Serious adverse events [2]: six | Serious adverse events deemed treatment-related [2]: three | Treatment-related deaths [2]: No treatment-related deaths | Complete response ([3]; 15 patients): no patient | Overall response rate ([3]; 15 patients, 95 % confidence interval 0.2–31.9 %): 7% | Median time to progression ([3]; 95 % confidence interval 1.9–12.4 months): 3.7 months | Duration of response (partial response) ([3]; one patient, pancreatic neuroendocrine tumor): 10.5 months | Incidence of biochemical toxicities: ALT, all grades [4, 9]: 75% | Incidence of biochemical toxicities: ALT, grade 3/4 [4, 9]: 25% | Incidence of biochemical toxicities: AST, all grades [4, 9]: 75% | Incidence of biochemical toxicities: AST, grade 3/4 [4, 9]: 25% | Adverse events: Alopecia, all grades [4]: 33% | Adverse events: Alopecia, grade 3/4 [4]: 0% | Adverse events: Anorexia, all grades [4]: 50% | Adverse events: Anorexia, grade 3/4 [4]: 8% | Adverse events: Diarrhea, all grades [4]: 50% | Adverse events: Diarrhea, grade 3/4 [4]: 17% | Adverse events: Fatigue, all grades [4]: 17% | Adverse events: Fatigue, grade 3/4 [4]: 0% | Adverse events: Hand–foot skin reaction, all grades [4]: 67% | Adverse events: Hand–foot skin reaction, grade 3/4 [4]: 25% | Adverse events: Hypertension, all grades [4]: 50% | Adverse events: Hypertension, grade 3/4 [4]: 17% | Adverse events: Rash, all grades [4]: 50% | Adverse events: Rash, grade 3/4 [4]: 8% | Adverse events: Voice changes/hoarseness, all grades [4]: 42% | Adverse events: Voice changes/hoarseness, grade 3/4 [4]: 0% | Incidence of biochemical toxicities: ALT, all grades [5, 9]: 39% | Incidence of biochemical toxicities: ALT, grade 3/4 [5, 9]: 2% | Incidence of biochemical toxicities: AST, all grades [5, 9]: 41% | Incidence of biochemical toxicities: AST, grade 3/4 [5, 9]: 2% | Adverse events: Alopecia, all grades ([5]; untreated): 45% | Adverse events: Alopecia, grade 3/4 ([5]; untreated): 0% | Adverse events: Anorexia, all grades ([5]; untreated): 29% | Adverse events: Anorexia, grade 3/4 ([5]; untreated): 6% | Adverse events: Diarrhea, all grades ([5]; untreated): 45% | Adverse events: Diarrhea, grade 3/4 ([5]; untreated): 10% | Adverse events: Fatigue, all grades ([5]; untreated): 53% | Adverse events: Fatigue, grade 3/4 ([5]; untreated): 8% | Adverse events: Hand–foot skin reaction, all grades ([5]; untreated): 71% | Adverse events: Hand–foot skin reaction, grade 3/4 ([5]; untreated): 33% | Adverse events: Hypertension, all grades ([5]; untreated): 49% | Adverse events: Hypertension, grade 3/4 ([5]; untreated): 6% | Adverse events: Rash, all grades ([5]; untreated): 39% | Adverse events: Rash, grade 3/4 ([5]; untreated): 6% | Adverse events: Voice changes/hoarseness, all grades ([5]; untreated): 35% | Adverse events: Voice changes/hoarseness, grade 3/4 ([5]; untreated): 0% | Metabolizing enzyme [6]: metabolized by cytochrome p450 3A4 | Metabolizing enzyme [7]: UDP-glucuronosyltransferase 1A9 glucuronidation | Frequency of hand–foot skin reaction [8]: 67–71%

CNC(=O)c1cc(Oc2ccc(NC(=O)Nc3ccc(Cl)c(C(F)(F)F)c3)c(F)c2)cc[n+]1[O-] [M2]
AUC from 0 to 24 h of metabolite as share of regorafenib [1]: 47.3% | t 1/2 (terminal half life) [1]: 29.5 (24.1) h | t max [1]: 4.3 (0.6–47.9) h | AUC ([1]; po, 160 mg): 7,820.6 (301.2) μg.h/L | AUC0–24 ([1]; po, 160 mg): 3,697.2 (340.5) μg.h/L | C max ([1]; po, 160 mg): 273.3 (388.9) μg/L | t 1/2 (terminal half life) ([1]; po, 160 mg): 24.8 (27.7) h | Change in t max and t 1/2 between single dosing and 21-day multiple dosing [1]: no significant change
